Assay results: patent US12721905B2, “Combination of anti-HER2 antibody-drug conjugate and PARP1 selective inhibitor” (AstraZeneca UK Limited, priority 2020, dated 2026)
pIC50: −log10 of the molar value. Each block holds one molecule with its values, some of them ahead of it.

Assays:
BRCA2 (−/−) DLD1 cells = test: PARP proliferation assay (4 day compound dosing), BRCA2 (-/-) DLD1; format: cell-based; settings: Homo sapiens, DLD-1, 96 h, read-out: BRCA2 −/− DLD-1 prolif 4 d IC50
DLD1 cells = test: PARP proliferation assay (4 day compound dosing), WT DLD1; format: cell-based; settings: Homo sapiens, DLD-1, 96 h, read-out: WT DLD-1 prolif 4 d IC50
[1] = target: T1, Recombinant full length PARP2 protein (Homo sapiens, UniProt Q9UGN5); test: PARP fluorescence anisotropy binding assay, PARP2
T1 construct: Recombinant full length PARP2 protein
T1 sequence (Q9UGN5 whole entry): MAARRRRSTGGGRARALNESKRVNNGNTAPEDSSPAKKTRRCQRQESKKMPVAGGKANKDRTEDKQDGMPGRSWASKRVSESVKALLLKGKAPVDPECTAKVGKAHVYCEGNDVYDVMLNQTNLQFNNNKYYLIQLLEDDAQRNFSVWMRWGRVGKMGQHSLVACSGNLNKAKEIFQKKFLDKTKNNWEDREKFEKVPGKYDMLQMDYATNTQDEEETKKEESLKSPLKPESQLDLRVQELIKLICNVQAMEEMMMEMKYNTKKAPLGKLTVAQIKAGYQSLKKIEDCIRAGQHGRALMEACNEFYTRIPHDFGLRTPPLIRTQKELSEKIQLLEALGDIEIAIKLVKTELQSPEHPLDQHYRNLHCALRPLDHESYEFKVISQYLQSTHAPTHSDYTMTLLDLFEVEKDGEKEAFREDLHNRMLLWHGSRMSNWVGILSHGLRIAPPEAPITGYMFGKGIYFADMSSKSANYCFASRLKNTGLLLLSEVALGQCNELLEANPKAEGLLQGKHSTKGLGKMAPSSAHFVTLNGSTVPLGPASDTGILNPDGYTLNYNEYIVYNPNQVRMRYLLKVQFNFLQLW

NCI-N87 xenograft = test: Antitumor test in vivo, NCI-N87 xenograft (Example 5); set-up: species or system Female Nude mice; settings: AZD5305 1 mg/kg PO QD for 28 days
5637 = test: High-throughput combination screen, 7-day CellTiter-Glo cell viability (Example 6), 5637; format: cell-based; settings: AZD5305 as single agent, HER2 mutant cell line 5637
Procedure: Combination activity was assessed based on a combination of the ΔEmax and Loewe synergy scores.
FIGS. 18A and 19A show matrices of measured cell viability signals. […] Values in the box represent the ratio of cells treated with drug A+B compared to DMSO control at day 7. All values are normalised to cell viability values at day 0. Values between 0 and 100 represent % growth inhibition and values above 100 represent cell death.
FIGS. 18B and 19B show Loewe excess matrices. Values in the box represent excess values calculated by the Loewe additivity model.
FIGS. 18C and 19C show HSA excess matrices. Values in the box represent excess values calculated by the HSA (Highest Single Agent) model.

SMILES: CCc1cc2ncc(CN3CCN(c4ccc(C(=O)NC)nc4)CC3)cc2[nH]c1=O [Example 4]
pIC50 (BRCA2 (−/−) DLD1 cells): < 7.77

pIC50 (DLD1 cells): < 4.52
pIC50 (BRCA2 (−/−) DLD1 cells): 8.40
SMILES: CCc1cc2ncc(CN3CCN(c4ccc(C(=O)NC)nc4C(F)(F)F)CC3)cc2[nH]c1=O [Example 30]

pIC50 [1]: 5.52
SMILES: CCc1cc2ncc(CN3CCN(c4ccc(C(=O)NC)nc4C)CC3)cc2[nH]c1=O [Example 31]

SMILES: CCc1cc2ncc(CN3CCN(c4ccc(C(=O)NC)nc4)CC3)cc2[nH]c1=O [Synthesis Example 4, 5-[4-[(7-ethyl-6-oxo-5H-1,5-naphthyridin-3-yl)methyl]piperazin-1-yl]-N-methyl-pyridine-2-carboxamide]
TGI % day 41 (NCI-N87 xenograft): 40%
single agent activity 5637: not active
